Source: BindingDB's records for doi:10.1021/acs.jnatprod.1c00014 (Jiangsu University of Science and Technology, 2021)

Molecular target: Maltase-glucoamylase (Homo sapiens, UniProt O43451)
Test: Inhibition of alpha-glucosidase (unknown origin) preincubated for 5 mins followed by addition of pNPG substrate and measured after 30 mins by spectrophotometric method

Maltase-glucoamylase, sequence (O43451 whole entry): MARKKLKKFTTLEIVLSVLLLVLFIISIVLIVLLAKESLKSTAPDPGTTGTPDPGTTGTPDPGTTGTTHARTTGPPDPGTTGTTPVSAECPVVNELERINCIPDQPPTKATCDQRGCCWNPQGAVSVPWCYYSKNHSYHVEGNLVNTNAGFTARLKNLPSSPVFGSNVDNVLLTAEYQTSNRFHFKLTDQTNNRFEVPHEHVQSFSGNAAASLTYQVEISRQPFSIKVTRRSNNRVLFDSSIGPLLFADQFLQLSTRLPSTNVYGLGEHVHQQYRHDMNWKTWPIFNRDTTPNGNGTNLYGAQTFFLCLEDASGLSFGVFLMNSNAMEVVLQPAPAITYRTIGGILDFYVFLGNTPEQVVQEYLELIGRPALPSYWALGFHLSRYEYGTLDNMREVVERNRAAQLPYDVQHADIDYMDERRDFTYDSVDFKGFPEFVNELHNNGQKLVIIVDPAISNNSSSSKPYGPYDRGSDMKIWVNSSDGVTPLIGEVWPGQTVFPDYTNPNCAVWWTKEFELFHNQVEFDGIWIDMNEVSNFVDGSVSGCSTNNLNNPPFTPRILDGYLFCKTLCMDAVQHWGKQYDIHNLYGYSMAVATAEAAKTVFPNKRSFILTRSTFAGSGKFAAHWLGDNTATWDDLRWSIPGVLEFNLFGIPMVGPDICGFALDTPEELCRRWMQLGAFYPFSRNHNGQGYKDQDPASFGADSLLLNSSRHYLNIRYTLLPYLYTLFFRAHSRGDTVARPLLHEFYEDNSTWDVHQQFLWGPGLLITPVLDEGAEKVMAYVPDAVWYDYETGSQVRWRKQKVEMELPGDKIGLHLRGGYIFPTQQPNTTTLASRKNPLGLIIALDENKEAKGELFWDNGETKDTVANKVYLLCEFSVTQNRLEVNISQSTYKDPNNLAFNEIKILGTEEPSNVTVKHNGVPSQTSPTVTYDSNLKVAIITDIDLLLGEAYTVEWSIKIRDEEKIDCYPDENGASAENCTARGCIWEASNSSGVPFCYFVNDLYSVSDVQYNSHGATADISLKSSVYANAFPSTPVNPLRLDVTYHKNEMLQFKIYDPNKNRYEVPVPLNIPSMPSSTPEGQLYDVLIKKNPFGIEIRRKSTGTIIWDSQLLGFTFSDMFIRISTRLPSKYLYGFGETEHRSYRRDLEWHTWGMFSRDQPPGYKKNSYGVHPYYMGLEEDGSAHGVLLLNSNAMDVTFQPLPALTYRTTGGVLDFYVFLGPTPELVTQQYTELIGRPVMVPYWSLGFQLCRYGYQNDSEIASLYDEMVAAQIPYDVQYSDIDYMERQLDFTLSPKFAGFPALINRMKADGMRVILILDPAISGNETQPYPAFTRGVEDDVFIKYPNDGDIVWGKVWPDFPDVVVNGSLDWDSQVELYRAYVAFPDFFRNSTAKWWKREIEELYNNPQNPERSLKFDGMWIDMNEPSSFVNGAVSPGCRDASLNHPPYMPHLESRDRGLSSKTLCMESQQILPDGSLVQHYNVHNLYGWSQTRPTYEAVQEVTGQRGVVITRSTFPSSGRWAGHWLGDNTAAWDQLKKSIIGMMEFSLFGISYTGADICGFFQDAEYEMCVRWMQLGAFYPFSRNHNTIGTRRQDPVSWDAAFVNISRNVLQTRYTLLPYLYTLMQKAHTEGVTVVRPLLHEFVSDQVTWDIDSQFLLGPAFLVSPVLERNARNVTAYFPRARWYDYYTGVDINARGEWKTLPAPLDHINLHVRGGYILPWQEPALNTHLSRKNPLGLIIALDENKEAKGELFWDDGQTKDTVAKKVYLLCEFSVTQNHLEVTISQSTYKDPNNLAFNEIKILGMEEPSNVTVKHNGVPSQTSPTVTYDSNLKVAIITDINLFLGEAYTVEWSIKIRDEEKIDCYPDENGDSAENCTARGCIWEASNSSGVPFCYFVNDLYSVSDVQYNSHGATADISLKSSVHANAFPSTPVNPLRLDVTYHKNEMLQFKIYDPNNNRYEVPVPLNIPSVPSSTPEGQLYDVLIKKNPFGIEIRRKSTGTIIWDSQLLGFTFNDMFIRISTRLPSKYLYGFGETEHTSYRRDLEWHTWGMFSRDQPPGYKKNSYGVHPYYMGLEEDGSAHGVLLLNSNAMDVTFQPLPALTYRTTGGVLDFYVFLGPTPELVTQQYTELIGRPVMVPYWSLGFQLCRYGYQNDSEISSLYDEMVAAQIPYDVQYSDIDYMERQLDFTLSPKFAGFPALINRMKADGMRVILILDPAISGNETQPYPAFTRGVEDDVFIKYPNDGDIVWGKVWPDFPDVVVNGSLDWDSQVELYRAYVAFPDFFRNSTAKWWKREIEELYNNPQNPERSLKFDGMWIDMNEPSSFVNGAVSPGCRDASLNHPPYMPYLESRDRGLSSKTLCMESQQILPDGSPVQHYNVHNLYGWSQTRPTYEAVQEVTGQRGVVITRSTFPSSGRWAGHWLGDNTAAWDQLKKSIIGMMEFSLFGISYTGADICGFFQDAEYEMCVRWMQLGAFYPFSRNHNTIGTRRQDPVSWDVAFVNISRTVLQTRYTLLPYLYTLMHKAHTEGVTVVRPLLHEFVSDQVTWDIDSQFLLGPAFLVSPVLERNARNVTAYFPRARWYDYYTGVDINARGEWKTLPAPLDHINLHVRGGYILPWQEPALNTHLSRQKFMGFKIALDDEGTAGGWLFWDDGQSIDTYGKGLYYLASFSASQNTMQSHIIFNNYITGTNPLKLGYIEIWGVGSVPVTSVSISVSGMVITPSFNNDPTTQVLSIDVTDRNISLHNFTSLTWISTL

Row | IC50 | SMILES
1 | 40.6 µM | COc1ccc(-c2oc3cc(OC)cc(OC)c3c(=O)c2OCCCCCN2C[C@H](O)[C@@H](O)[C@H](O)[C@H]2CO)cc1
2 | 1.78 µM | COc1ccc(-c2oc3cc(OC)cc(OC)c3c(=O)c2OCCCCCCCCN2C[C@H](O)[C@@H](O)[C@H](O)[C@H]2CO)cc1
3 | 0.24 µM | COc1ccc(-c2oc3cc(OC)cc(OC)c3c(=O)c2OCCCCCCCCCCCN2C[C@H](O)[C@@H](O)[C@H](O)[C@H]2CO)cc1
